The values below come from ChEMBL document CHEMBL4342495, “Structure-Activity Relationship and Anticancer Profile of Second-Generation Anti-MRSA Synthetic Retinoids” (ACS Med Chem Lett, 2020).

SMILES strings stand for the structures. In brackets after ≈: the same amount, converted by molar mass.

Data set [1] has as its system Staphylococcus aureus. The data set can be described thus: Antibacterial activity against methicillin-resistant Staphylococcus aureus MW2 BAA 1707 assessed as growth inhibition by standard microdilution method. Type of data set: functional.
The next data set concerns HepG2. Nature of the data set: Cytotoxicity against human HepG2 cells assessed as reduction in cell viability measured after 24 hrs by WST1 assay. Type of data set: functional. The conditions noted are these: HepG2, 24 h, read-out: LC50 (the source's name).
Data set [2] is described as follows: Hemolytic activity against human erythrocytes measured after 1 hr. Type of data set: ADME, cell-based, Erythrocyte.
A further data set deals with HeLa. The data set can be described thus: Cytotoxicity against human HeLa cells assessed as reduction in cell viability measured after 24 hrs by WST1 assay. Type of data set: functional. The conditions noted are these: read-out: LC50 (the source's name).
The subject of data set [3] is Staphylococcus aureus. Nature of the data set: Antibacterial activity against methicillin-resistant Staphylococcus aureus ATCC 33591 assessed as growth inhibition by standard microdilution method. Type of data set: functional.
Data set [4] relates to Staphylococcus aureus. Nature of the data set: Antibacterial activity against vancomycin-resistant Staphylococcus aureus VRS1 assessed as growth inhibition by standard microdilution method. Type of data set: functional.
Data set [5] deals with Staphylococcus aureus. The data set can be described thus: Antibacterial activity against methicillin-resistant Staphylococcus aureus JE2 assessed as growth inhibition by standard microdilution method. Type of data set: functional.
Data set [6] concerns Staphylococcus aureus. Nature of the data set: Antibacterial activity against methicillin-resistant Staphylococcus aureus MW2 assessed as growth inhibition. Type of data set: functional.
The subject of data set [7] is Staphylococcus aureus. The data set can be described thus: Antibiofilm activity against methicillin-resistant Staphylococcus aureus MW2 assessed as reduction in number of viable cells by measuring colony forming units at 16 fold MIC relative to control. Type of data set: functional.

As for `CCCCCCCC=Cc1cc(-c2ccc3cc(CO)ccc3c2)ccc1O`, the minimum inhibitory concentration (MIC) in the data set with Staphylococcus aureus [1] was greater than 64 µg/mL. Further, the CC50 in the data set with HepG2 amounted to 5.51 µg/mL. Further, in [2], the HC50 at 1 h is greater than 64 µg/mL.

As to `CCCCCCCCCc1cc(-c2ccc3cc(C(=O)O)ccc3c2)ccc1O`, in the data set on Staphylococcus aureus [1], the MIC amounted to 4 µg/mL. Moreover, the CC50 in the data set on HepG2 came out at 1.73 µg/mL. In data set [2], this compound yielded a concentration for 50% haemolysis (HC50) at 1 h of 22.8 µg/mL.

For `CCCCCCCc1cc(-c2ccc3cc(C(=O)O)ccc3c2)ccc1O`, the MIC in the data set with Staphylococcus aureus [1] worked out at 4 µg/mL. The CC50 with HepG2 is 1.89 µg/mL; with HeLa it was 0.6 µg/mL (≈ 1.66 µM). For the same compound, the HC50 at 1 h in data set [2] was greater than 64 µg/mL.

For the compound `CCCCCCCc1cc(-c2ccc3cc(CO)ccc3c2)ccc1O`, in the data set on Staphylococcus aureus [1], the minimal inhibitory concentration (MIC) came out at 4 µg/mL. Besides, in the data set with HepG2, the CC50 worked out at 3.61 µg/mL. In [2], this compound came in with a 50% haemolytic concentration (HC50) at 1 h greater than 64 µg/mL.

Take `CC12CC3CC(C)(C1)CC(c1cc(-c4ccc5cc(CO)ccc5c4)ccc1O)(C3)C2`: in the data set on Staphylococcus aureus [1], the MIC came to 8 µg/mL. Besides, the CC50 in the data set with HepG2 was 11.7 µg/mL. The 50% haemolytic concentration (HC50) at 1 h in [2] is greater than 64 µg/mL.

For `Cc1cc(-c2ccc3cc(CO)ccc3c2)ccc1O`, in the data set on Staphylococcus aureus [1], the MIC is greater than 64 µg/mL. The CC50 with HepG2 was greater than 32 µg/mL. In data set [2], this compound displayed an HC50 at 1 h greater than 64 µg/mL.

As for `CC(C)(C)c1cc(-c2ccc3cc(CO)ccc3c2)ccc1O`, in the data set on Staphylococcus aureus [1], the MIC came out at 8 µg/mL. Further, the CC50 in the data set with HepG2 turned out to be 7.5 µg/mL. In data set [2], this compound returned an HC50 at 1 h greater than 64 µg/mL.

Consider `CCCC=Cc1cc(-c2ccc3cc(C(=O)O)ccc3c2)ccc1O`, for which, in the data set on Staphylococcus aureus [1], the minimum inhibitory concentration (MIC) was 16 µg/mL. For the same compound, the CC50 in the data set with HepG2 turned out to be 5.38 µg/mL. For the same compound, the HC50 at 1 h in data set [2] is greater than 64 µg/mL.

Turning to `CCCCCc1cc(-c2ccc3cc(CO)ccc3c2)ccc1O`, the minimum inhibitory concentration (MIC) in the data set with Staphylococcus aureus [1] is 4 µg/mL. In addition, the CC50 in the data set on HepG2 is 3.27 µg/mL. This compound also gave an HC50 at 1 h in data set [2] greater than 64 µg/mL.

Regarding `Cc1cc(-c2ccc3cc(C(=O)O)ccc3c2)ccc1O`, in the data set on Staphylococcus aureus [1], the minimal inhibitory concentration (MIC) is greater than 64 µg/mL. Further, in the data set with HepG2, the CC50 was greater than 32 µg/mL. This compound also came in with an HC50 at 1 h in [2] greater than 64 µg/mL.

`CCCCCc1cc(-c2ccc3cc(C(=O)O)ccc3c2)ccc1O`: in the data set with Staphylococcus aureus [1], the MIC was 8 µg/mL. Further, the CC50 in the data set on HepG2 came to 3.26 µg/mL. In addition, in [2], the 50% haemolytic concentration (HC50) at 1 h is greater than 64 µg/mL.

`CCCCCC=Cc1cc(-c2ccc3cc(CO)ccc3c2)ccc1O`: the MIC in the data set on Staphylococcus aureus [1] stood at 4 µg/mL. Besides, the CC50 with HepG2 came to 4.19 µg/mL. Moreover, the concentration for 50% haemolysis (HC50) at 1 h in data set [2] is greater than 64 µg/mL.

As for `OCc1ccc2cc(-c3ccc(O)cc3)ccc2c1`, the minimal inhibitory concentration (MIC) in the data set on Staphylococcus aureus [1] was greater than 64 µg/mL. Further, in the data set on HepG2, the CC50 came to 1700 nM. The compound also had a concentration for 50% haemolysis (HC50) at 1 h in data set [2] greater than 64 µg/mL.

With `O=C(O)c1ccc2cc(-c3ccc(O)cc3)ccc2c1`, in the data set with Staphylococcus aureus [1], the minimum inhibitory concentration (MIC) is greater than 64 µg/mL. For the same compound, the CC50 with HepG2 was greater than 32 µg/mL. In data set [2], the HC50 at 1 h is greater than 64 µg/mL.

For `CCCC=Cc1cc(-c2ccc3cc(CO)ccc3c2)ccc1O`, the minimal inhibitory concentration (MIC) in the data set on Staphylococcus aureus [1] was 4 µg/mL. In the data set on HepG2, the CC50 is 3.89 µg/mL. This compound yielded an HC50 at 1 h in data set [2] greater than 64 µg/mL.

On to `CCCCCC=Cc1cc(-c2ccc3cc(C(=O)O)ccc3c2)ccc1O`, for which the minimum inhibitory concentration (MIC) with Staphylococcus aureus [1] worked out at 8 µg/mL. Further, in the data set with HepG2, the CC50 was 2.44 µg/mL. The same compound registered an HC50 at 1 h in data set [2] of 45.4 µg/mL.

As to `CC12CC3CC(C)(C1)CC(c1cc(-c4ccc5cc(C(=O)O)ccc5c4)ccc1O)(C3)C2`, the MIC with Staphylococcus aureus [3], with Staphylococcus aureus [1], with Staphylococcus aureus [4] and in the data set on Staphylococcus aureus [5] was 2 µg/mL throughout. Also, the CC50 was 1.84 µg/mL in the data set with HepG2 and 0.49 µg/mL (≈ 1.15 µM) with HeLa. The HC50 at 1 h in [2] worked out at 15.2 µg/mL.

On to `CCCCCCCC=Cc1cc(-c2ccc3cc(C(=O)O)ccc3c2)ccc1O`, for which the MIC with Staphylococcus aureus [1] is 4 µg/mL. Also, in the data set on HepG2, the CC50 was 2.6 µg/mL. Further, in data set [2], the HC50 at 1 h is 51.5 µg/mL.

Turning to `CCCCCCCCCc1cc(-c2ccc3cc(CO)ccc3c2)ccc1O`, the minimum inhibitory concentration (MIC) with Staphylococcus aureus [1] was greater than 64 µg/mL. In addition, the CC50 with HepG2 turned out to be 7.25 µg/mL. The compound also showed a concentration for 50% haemolysis (HC50) at 1 h in [2] greater than 64 µg/mL.

Regarding `CC(C)(C)c1cc(-c2ccc3cc(C(=O)O)ccc3c2)ccc1O`, the minimum inhibitory concentration (MIC) in the data set on Staphylococcus aureus [1] was found to be 16 µg/mL. Also, the CC50 with HepG2 amounted to 9.8 µg/mL. For the same compound, the concentration for 50% haemolysis (HC50) at 1 h in data set [2] is greater than 64 µg/mL.

Take `O=C(O)c1ccc2cc(-c3ccc(O)c(C45CC6CC(CC(C6)C4)C5)c3)ccc2c1` [O-DEMETHYLATED ADAPALENE]: the MIC with Staphylococcus aureus [3] was determined as 1 µg/mL; in the data set with Staphylococcus aureus [1], 1 µg/mL; in the data set on Staphylococcus aureus [6], 2 µg/mL (≈ 5.02 µM); in the data set on Staphylococcus aureus [4], 1 µg/mL; with Staphylococcus aureus [5], 1 µg/mL. The “inhibition (INH)” value in the data set with Staphylococcus aureus [7] was 90%. For the same compound, the figures for the CC50 in the data set on HepG2 and with HeLa were 1.02 µg/mL and 0.21 µg/mL (≈ 0.527 µM), respectively. In data set [2], the HC50 at 1 h was greater than 64 µg/mL.

On to `CN[C@H](CC(C)C)C(=O)N[C@H]1C(=O)N[C@@H](CC(N)=O)C(=O)N[C@H]2C(=O)N[C@H]3C(=O)N[C@H](C(=O)N[C@H](C(=O)O)c4cc(O)cc(O)c4-c4cc3ccc4O)[C@H](O)c3ccc(c(Cl)c3)Oc3cc2cc(c3O[C@@H]2O[C@H](CO)[C@@H](O)[C@H](O)[C@H]2O[C@H]2C[C@](C)(N)[C@H](O)[C@H](C)O2)Oc2ccc(cc2Cl)[C@H]1O` [VANCOMYCIN], for which the minimum inhibitory concentration (MIC) in the data set on Staphylococcus aureus [4] is greater than 64 µg/mL.
